Some test systems named below: ACHN; CAKI-1; EKVX; HCT-15; HOP-62; HOP-92; HT-29; KM12; LOX IMVI; MCF7; MDA-MB-435; Malme-3M; NCI-H23; NCI-H460; NCI/ADR-RES; OVCAR-5; OVCAR-8; SK-MEL-28; SK-MEL-5; SN12C.
Common to all, as to assay: growth of human tumour cells (NCI), 48 h

The source of these data is ChEMBL document CHEMBL1201862, “PubChem BioAssay data set” (2004).

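Each compound was tested at five concentrations against cells in 96-well plates for 48 hours. At the GI50, growth is halved.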 Calls of active or inactive are those of the source. Cut-off read from the data, not from the text of the source: active = GI50 up to about 1.1 µM and inactive = higher. Bounds are passed on as bounds.

Consider `C=CO/N=[N+](\[O-])N(CC)CC`, for which the GI50 with ACHN is > 100 µM (inactive); in the assay with CAKI-1, > 100 µM (inactive); with EKVX, > 100 µM (inactive); in the assay on HCT-15 it was above 100 µM; with HOP-62, > 100 µM (inactive); with HOP-92, > 100 µM (inactive). In addition, the GI50 in the assay on HT-29, in the assay with KM12, in the assay on LOX IMVI, in the assay with MCF7, with MDA-MB-435 and with Malme-3M was > 100 µM (inactive) throughout. The GI50 in the assay with NCI-H23, in the assay on NCI-H460, in the assay with NCI/ADR-RES, in the assay on OVCAR-5, in the assay with OVCAR-8 and with SK-MEL-28 was > 100 µM (inactive) in each case. The GI50 in the assay with SK-MEL-5 and in the assay with SN12C was > 100 µM (inactive) in each case.
In the case of `CC(=O)OCC1OC(N2C(=O)CC(N)=Nc3ccccc32)C(OC(C)=O)C(OC(C)=O)C1OC(C)=O` (stereo not given), the GI50 in the assay with ACHN is 66.5 µM (inactive); in the assay with CAKI-1, > 100 µM (inactive); with EKVX it was 83.2 µM (inactive); with HCT-15, 44.8 µM; in the assay on HOP-62, 81.7 µM (inactive); with HOP-92, > 100 µM (inactive). Moreover, the GI50 with HT-29 is 53.8 µM (inactive); with KM12 it was 45.2 µM (inactive); with LOX IMVI, 37.5 µM (inactive); in the assay on MCF7 it was 29.4 µM (inactive); with MDA-MB-435, 30.6 µM (inactive); in the assay on Malme-3M it was 28.9 µM (inactive). The GI50 is 43.2 µM (inactive) with NCI-H23; 55.5 µM (inactive) with NCI-H460; 45.3 µM (inactive) in the assay with NCI/ADR-RES; > 100 µM (inactive) in the assay on OVCAR-5; 32.4 µM (inactive) in the assay with OVCAR-8; 38.4 µM (inactive) with SK-MEL-28. Besides, the GI50 with SK-MEL-5 is 17 µM (inactive); in the assay with SN12C, 58.2 µM (inactive).
As to `Nc1ccccc1.O=P(O)(OP(=O)(O)c1ccccc1)c1ccccc1`, the GI50 in the assay on ACHN is > 100 µM (inactive); in the assay on CAKI-1, > 100 µM (inactive); in the assay with EKVX, > 100 µM (inactive); with HCT-15, 89.3 µM; with HOP-62 it was > 100 µM (inactive); in the assay with HOP-92, > 100 µM (inactive). The GI50 with HT-29, in the assay with KM12, in the assay on LOX IMVI, with MCF7, in the assay with MDA-MB-435 and in the assay on Malme-3M was > 100 µM (inactive) throughout. The GI50 in the assay on NCI-H23, in the assay on NCI-H460, in the assay on NCI/ADR-RES, in the assay with OVCAR-5, in the assay on OVCAR-8 and with SK-MEL-28 was > 100 µM (inactive) in each case. In addition, the GI50 with SK-MEL-5 and in the assay with SN12C was > 100 µM (inactive) each time.
Take `CCCCCCCCCCCCCC(=O)O[C@H]1CC[C@H](NC(=O)[C@H](OC)[C@H](O)[C@@H](O)[C@H](O)/C=C/C(C)C)C(=O)NC1` [BENGAMIDE A]: the GI50 is 0.0592 µM (active) in the assay on ACHN; 0.292 µM (active) in the assay on CAKI-1; 0.234 µM (active) with EKVX; 0.299 µM in the assay on HCT-15; 0.235 µM (active) in the assay with HOP-62; 0.0204 µM (active) in the assay on HOP-92. For the same compound, the GI50 is 0.00619 µM (active) in the assay on HT-29; 0.00512 µM (active) in the assay on KM12; 0.00512 µM (active) in the assay with LOX IMVI; 0.0392 µM (active) in the assay with MCF7; 0.204 µM (active) in the assay with MDA-MB-435; 0.0148 µM (active) in the assay with Malme-3M. Moreover, the GI50 with NCI-H23 was 0.0113 µM (active); in the assay on NCI-H460, 0.00512 µM (active); with NCI/ADR-RES, 5.18 µM (inactive); in the assay with OVCAR-5 it was 38.1 µM (inactive); in the assay on OVCAR-8 it was 0.00828 µM (active); in the assay with SK-MEL-28, < 0.0103 µM (active). Also, the GI50 in the assay on SK-MEL-5 is 0.0105 µM (active); in the assay with SN12C, 0.00542 µM (active).
For the compound `Cc1n[nH]c(=O)n1C1CCCC1`, the GI50 in the assay with ACHN was > 100 µM (inactive); in the assay on CAKI-1 it was > 100 µM (inactive); in the assay with EKVX, > 100 µM (inactive); in the assay on HCT-15 it was above 100 µM; in the assay on HOP-62 it was > 100 µM (inactive); with HOP-92, > 100 µM (inactive). Further, the GI50 in the assay with HT-29, with KM12, in the assay with LOX IMVI, with MCF7, in the assay with MDA-MB-435 and with Malme-3M was > 100 µM (inactive) in each case. The GI50 in the assay with NCI-H23, in the assay with NCI-H460, in the assay on NCI/ADR-RES, in the assay on OVCAR-5, in the assay with OVCAR-8 and in the assay on SK-MEL-28 was > 100 µM (inactive) throughout. The GI50 in the assay with SK-MEL-5 and in the assay with SN12C was > 100 µM (inactive) each time.
In the case of `CC(=O)Oc1ccc(/C=C/C(=O)NCCOC(=O)/C=C/c2ccc(OC(C)=O)c(OC(C)=O)c2)cc1OC(C)=O`, the GI50 was 26.2 µM (inactive) in the assay with ACHN; 32.8 µM (inactive) in the assay with CAKI-1; 34.7 µM (inactive) in the assay with EKVX; 34.8 µM with HCT-15; 21.9 µM (inactive) with HOP-62; 28.2 µM (inactive) in the assay on HOP-92. The GI50 with HT-29 was 25.6 µM (inactive); with KM12, 32.4 µM (inactive); in the assay with LOX IMVI it was 13.9 µM (inactive); in the assay on MCF7 it was 29.5 µM (inactive); in the assay with MDA-MB-435, 31.7 µM (inactive); in the assay with Malme-3M, 28.5 µM (inactive). Besides, the GI50 in the assay on NCI-H23 is 26.4 µM (inactive); in the assay with NCI-H460, 32 µM (inactive); with NCI/ADR-RES, 70.1 µM (inactive); in the assay on OVCAR-5, 23.8 µM (inactive); in the assay on OVCAR-8, 25.2 µM (inactive); in the assay with SK-MEL-28, 34.4 µM (inactive). In addition, the GI50 in the assay on SK-MEL-5 is 17.6 µM (inactive); in the assay on SN12C it was 26.1 µM (inactive).
As for `COc1ccc(/C=N/N=C(\N)NO)c(O)c1`, the GI50 in the assay with ACHN is 5.96 µM (inactive); in the assay on CAKI-1, 4.11 µM (inactive); in the assay on EKVX, > 10 µM (inactive); with HCT-15, 6.24 µM; in the assay on HOP-62, > 10 µM (inactive); with HOP-92, > 10 µM (inactive). Further, the GI50 in the assay on HT-29 is 5.66 µM (inactive); with KM12, 4.57 µM (inactive); in the assay on LOX IMVI, 3.27 µM (inactive); in the assay on MCF7, 4.34 µM (inactive); in the assay on MDA-MB-435 it was 2.09 µM (inactive); in the assay with Malme-3M, 9.75 µM (inactive). Moreover, the GI50 was > 10 µM (inactive) in the assay with NCI-H23; 4.91 µM (inactive) in the assay with NCI-H460; 3.92 µM (inactive) in the assay on NCI/ADR-RES; > 10 µM (inactive) in the assay on OVCAR-5; > 10 µM (inactive) in the assay on OVCAR-8; > 10 µM (inactive) in the assay with SK-MEL-28. The GI50 with SK-MEL-5 is 3.53 µM (inactive); in the assay on SN12C, 8.53 µM (inactive).
